Test results: patent publication US8871753B2, “Macrocyclic compounds and their use as kinase inhibitors” (Incyte Corporation, priority 2008, dated 2014)
Counter-ions that a name gives are not always drawn.

Key:
Format in all cases: biochemical
[1] = molecular target: T1, human JAK1 (a.a. 837-1142) (Homo sapiens, UniProt P23458); assay: In vitro JAK kinase assay (HTRF, phosphorylation of a biotinylated peptide), JAK1; details: method AA1 (90 μM ATP) or AA2 (1000 μM ATP), not stated per value; read-out: JAK1 IC50
T1 construct: human JAK1 (a.a. 837-1142); His tag (N); made in house; host or cells: insect cells (baculovirus)
T1 sequence (P23458 849-1154): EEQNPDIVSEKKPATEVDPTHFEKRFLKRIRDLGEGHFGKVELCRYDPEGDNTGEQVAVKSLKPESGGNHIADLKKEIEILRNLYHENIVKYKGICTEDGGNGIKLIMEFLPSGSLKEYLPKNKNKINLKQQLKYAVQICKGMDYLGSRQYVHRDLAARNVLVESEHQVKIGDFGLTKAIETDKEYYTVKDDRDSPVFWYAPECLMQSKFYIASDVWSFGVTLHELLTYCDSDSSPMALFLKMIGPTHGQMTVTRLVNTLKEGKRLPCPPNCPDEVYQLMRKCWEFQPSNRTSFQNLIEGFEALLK
Procedure, shortened: (§1)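 Phosphorylation of a biotinylated peptide by the JAK kinase domain, detected by HTRF with Eu-Py20 and SA-APC. ATP was 90 μM for JAK1, 30 μM for JAK2 and 3 μM for JAK3. Reactions ran 1 h at room temperature and were stopped with EDTA, followed by 40 min antibody binding.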

[2] = molecular target: T2, human JAK2 (a.a. 828-1132) (Homo sapiens, UniProt O60674); assay: In vitro JAK kinase assay (HTRF, phosphorylation of a biotinylated peptide), JAK2; details: method AA1 (30 μM ATP) or AA2 (1000 μM ATP), not stated per value
T2 construct: JAK2 (a.a. 828-1132); His tag (N); made in house; host or cells: insect cells (baculovirus)
T2 sequence (O60674 828-1132): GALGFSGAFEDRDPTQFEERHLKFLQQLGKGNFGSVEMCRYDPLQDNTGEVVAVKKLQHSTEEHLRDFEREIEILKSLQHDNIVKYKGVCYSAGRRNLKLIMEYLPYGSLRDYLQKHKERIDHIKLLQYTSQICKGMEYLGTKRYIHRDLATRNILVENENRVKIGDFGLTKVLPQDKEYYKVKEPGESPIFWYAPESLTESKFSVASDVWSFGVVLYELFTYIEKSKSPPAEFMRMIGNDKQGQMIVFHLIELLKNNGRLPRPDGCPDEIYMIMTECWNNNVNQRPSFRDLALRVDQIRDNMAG
Procedure, shortened: as §1

[3] = molecular target: T3, human JAK3 (a.a. 781-1124) (Homo sapiens, UniProt P52333); assay: In vitro JAK kinase assay (HTRF, phosphorylation of a biotinylated peptide), JAK3; details: method AA1 (3 μM ATP) or AA2 (1000 μM ATP), not stated per value
T3 construct: JAK3 (a.a. 781-1124); His tag (N); made in house; host or cells: insect cells (baculovirus)
T3 sequence (P52333 781-1124): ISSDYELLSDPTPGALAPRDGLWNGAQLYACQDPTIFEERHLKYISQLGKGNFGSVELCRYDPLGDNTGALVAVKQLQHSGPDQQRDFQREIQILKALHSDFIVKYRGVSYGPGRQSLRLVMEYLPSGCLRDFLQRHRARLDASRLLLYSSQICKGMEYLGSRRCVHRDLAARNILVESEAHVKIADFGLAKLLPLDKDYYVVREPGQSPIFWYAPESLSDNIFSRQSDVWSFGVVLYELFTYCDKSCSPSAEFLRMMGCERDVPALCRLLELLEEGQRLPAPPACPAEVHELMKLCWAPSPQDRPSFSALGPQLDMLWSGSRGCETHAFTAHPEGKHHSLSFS
Procedure, shortened: as §1

TYK2 = TYK2 (Homo sapiens, UniProt P29597); assay: TYK2 kinase inhibition (Table A1)
Sequence of TYK2 (P29597 whole entry): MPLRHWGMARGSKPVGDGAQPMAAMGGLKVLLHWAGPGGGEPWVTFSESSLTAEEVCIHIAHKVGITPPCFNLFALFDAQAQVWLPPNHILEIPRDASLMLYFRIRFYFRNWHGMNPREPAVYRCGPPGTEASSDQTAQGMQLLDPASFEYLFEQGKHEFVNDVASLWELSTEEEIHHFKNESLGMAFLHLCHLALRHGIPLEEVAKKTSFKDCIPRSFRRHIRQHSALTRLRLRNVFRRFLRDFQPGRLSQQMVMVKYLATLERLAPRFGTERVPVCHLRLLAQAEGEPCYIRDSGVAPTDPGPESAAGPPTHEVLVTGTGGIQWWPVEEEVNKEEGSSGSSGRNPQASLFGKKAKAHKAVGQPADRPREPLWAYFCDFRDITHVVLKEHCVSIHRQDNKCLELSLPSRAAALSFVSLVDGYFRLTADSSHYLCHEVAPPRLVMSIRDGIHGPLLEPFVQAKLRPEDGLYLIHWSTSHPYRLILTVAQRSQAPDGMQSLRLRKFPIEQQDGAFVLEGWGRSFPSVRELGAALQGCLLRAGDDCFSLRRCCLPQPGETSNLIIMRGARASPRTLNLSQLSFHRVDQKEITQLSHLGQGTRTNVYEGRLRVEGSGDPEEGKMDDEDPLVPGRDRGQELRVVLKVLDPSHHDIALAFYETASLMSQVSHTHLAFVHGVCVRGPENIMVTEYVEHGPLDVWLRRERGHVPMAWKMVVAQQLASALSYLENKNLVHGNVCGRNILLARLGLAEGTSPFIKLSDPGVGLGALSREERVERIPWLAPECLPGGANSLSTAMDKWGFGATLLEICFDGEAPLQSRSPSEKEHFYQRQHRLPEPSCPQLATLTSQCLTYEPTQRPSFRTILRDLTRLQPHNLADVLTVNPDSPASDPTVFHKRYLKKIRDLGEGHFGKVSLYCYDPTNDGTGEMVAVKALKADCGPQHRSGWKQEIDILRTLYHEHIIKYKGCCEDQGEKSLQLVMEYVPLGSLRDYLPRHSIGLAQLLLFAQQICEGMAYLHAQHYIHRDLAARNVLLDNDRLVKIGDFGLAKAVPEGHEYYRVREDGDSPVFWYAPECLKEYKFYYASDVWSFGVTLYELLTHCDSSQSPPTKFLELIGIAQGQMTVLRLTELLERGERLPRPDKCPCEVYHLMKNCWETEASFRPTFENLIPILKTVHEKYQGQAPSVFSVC

[4] = molecular target: T4, Recombinant Human Anaplastic Lymphoma Kinase (Homo sapiens, UniProt Q9UM73); assay: ALK HTRF kinase assay; details: compound at 500 nM or 1 mM; 90 μM ATP
T4 construct: purchased Invitrogen, Carlsbad, Calif
T4 sequence (Q9UM73 19-1620): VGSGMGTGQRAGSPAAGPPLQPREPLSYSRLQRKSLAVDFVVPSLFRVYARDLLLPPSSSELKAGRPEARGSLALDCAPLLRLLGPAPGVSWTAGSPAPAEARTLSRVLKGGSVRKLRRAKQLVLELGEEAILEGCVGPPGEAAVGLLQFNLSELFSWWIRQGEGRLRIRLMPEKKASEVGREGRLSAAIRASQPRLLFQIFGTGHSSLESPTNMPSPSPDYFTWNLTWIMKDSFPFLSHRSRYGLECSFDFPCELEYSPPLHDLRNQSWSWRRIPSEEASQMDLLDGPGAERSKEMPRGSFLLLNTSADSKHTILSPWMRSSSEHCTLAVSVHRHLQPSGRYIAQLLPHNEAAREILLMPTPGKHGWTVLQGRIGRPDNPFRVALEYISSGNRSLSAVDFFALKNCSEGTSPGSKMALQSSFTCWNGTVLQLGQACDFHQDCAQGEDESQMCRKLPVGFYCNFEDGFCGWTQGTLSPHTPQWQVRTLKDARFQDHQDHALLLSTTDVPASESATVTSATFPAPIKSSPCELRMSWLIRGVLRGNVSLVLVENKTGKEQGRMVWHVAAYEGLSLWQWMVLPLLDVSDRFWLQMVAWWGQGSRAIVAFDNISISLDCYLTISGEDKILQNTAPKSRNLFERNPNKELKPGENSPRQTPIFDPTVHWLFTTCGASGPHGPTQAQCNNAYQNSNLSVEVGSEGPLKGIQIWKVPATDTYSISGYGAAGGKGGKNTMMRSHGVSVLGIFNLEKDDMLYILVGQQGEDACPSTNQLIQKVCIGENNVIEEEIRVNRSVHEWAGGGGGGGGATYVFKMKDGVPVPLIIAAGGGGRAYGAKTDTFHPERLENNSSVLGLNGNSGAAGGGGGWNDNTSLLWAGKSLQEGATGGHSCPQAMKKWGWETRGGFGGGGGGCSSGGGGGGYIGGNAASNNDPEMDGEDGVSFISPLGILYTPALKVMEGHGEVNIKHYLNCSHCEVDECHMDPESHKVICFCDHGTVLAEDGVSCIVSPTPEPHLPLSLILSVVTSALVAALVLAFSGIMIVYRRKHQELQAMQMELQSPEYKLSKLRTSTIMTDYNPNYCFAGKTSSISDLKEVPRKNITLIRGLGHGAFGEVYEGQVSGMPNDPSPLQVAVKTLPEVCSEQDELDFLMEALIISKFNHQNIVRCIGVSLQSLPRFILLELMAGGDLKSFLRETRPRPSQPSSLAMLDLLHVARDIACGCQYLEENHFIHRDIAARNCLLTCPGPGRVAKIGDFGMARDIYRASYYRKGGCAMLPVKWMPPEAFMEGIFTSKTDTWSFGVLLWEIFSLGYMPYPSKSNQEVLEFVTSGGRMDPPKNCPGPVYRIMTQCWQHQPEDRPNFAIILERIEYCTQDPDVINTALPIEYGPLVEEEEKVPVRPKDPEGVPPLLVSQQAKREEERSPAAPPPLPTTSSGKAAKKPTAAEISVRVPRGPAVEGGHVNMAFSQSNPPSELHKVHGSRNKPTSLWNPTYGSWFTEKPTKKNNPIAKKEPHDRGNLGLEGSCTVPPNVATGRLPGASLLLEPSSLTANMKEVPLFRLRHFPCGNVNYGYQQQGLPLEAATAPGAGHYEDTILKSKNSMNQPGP
Procedure, shortened: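 Recombinant human ALK with biotinylated peptide substrate; phosphorylation detected by HTRF using Eu-labelled anti-phosphotyrosine antibody and streptavidin-allophycocyanin. IC50 from a sigmoidal fit with Hill slope.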

SMILES | IC50 [1] [nM] | IC50 [2] [nM] | IC50 [3] [nM] | IC50 (TYK2) [nM] | ALK % of inhibition at a concentration of 500 nM or 1 mM [4] [%]
CCNC(=O)N1CCN(C(=O)COc2ccc3cc2CCc2cccc(c2)Nc2ncc(Cl)c(n2)N3)CC1 [Example A12, trifluoroacetate] | 9.4 | 11 | 65 | 30 | 17
Clc1cnc2nc1Nc1ccc(OC3CCCC3)c(c1)CCc1cccc(c1)N2 [Example A14, 6-Chloro-12-(cyclopentyloxy)-2,4,8,22-tetraazatetracyclo[14.3.1.1(3,7).1(9,13)]docosa-1(20),3(22),4,6,9(21),10,12,16,18-nonaene trifluoroacetate] | 74 | 42 | 144 | 116 | 0
CC(Oc1ccc2cc1CCc1cccc(c1)Nc1ncc(Cl)c(n1)N2)C(=O)Nc1ccccc1 (stereo not shown) [Example A16, 2-{[6-Chloro-2,4,8,22-tetraazatetracyclo[14.3.1.1(3,7).1(9,13)]docosa-1(20),3(22),4,6,9(21),10,12,16,18-nonaen-12-yl]oxy}-N-phenylpropanamide trifluoroacetate] | 12 | 10 | 60 | 32 | 21
O=C(COc1ccc2cc1CCc1cccc(c1)Nc1ncc(Cl)c(n1)N2)Nc1ccccc1 [Example A18, 2-{[6-Chloro-2,4,8,22-tetraazatetracyclo[14.3.1.1(3,7).1(9,13)]docosa-1(20),3(22),4,6,9(21),10,12,16,18-nonaen-12-yl]oxy}-N-phenylacetamide trifluoroacetate] | 4.5 | 3.3 | 23 | 11 | 59
CC(=O)N1CCN(C(=O)COc2ccc3cc2CCc2cccc(c2)Nc2ncc(Cl)c(n2)N3)CC1 [Example A20, 12-[2-(4-Acetylpiperazin-1-yl)-2-oxoethoxy]-6-chloro-2,4,8,22-tetraazatetracyclo[14.3.1.1(3,7).1(9,13)]docosa-1(20),3(22),4,6,9(21),10,12,16,18-nonaene trifluoroacetate] | 12 | 8.2 | 78 | 27 | 17

These reach a lower IC50 [1]. Values come first.

IC50 [1] [nM] | IC50 [2] [nM] | IC50 [3] [nM] | IC50 (TYK2) [nM] | ALK % of inhibition at a concentration of 500 nM or 1 mM [4] [%] | SMILES
3.4 | 5.6 | 16 | 9.5 | 12 | Cn1ccc2c(NC(=O)N3CCN(C(=O)COc4ccc5cc4CCc4cccc(c4)Nc4ncc(Cl)c(n4)N5)CC3)cccc21 [Example A11, 4-({[6-Chloro-2,4,8,22-tetraazatetracyclo[14.3.1.1(3,7).1(9,13)]docosa-1(20),3(22),4,6,9(21),10,12,16,18-nonaen-12-yl]oxy}acetyl)-N-(1-methyl-1H-indol-4-yl)piperazine-1-carboxamide trifluoroacetate]
2.9 | 1.1 | 4.8 | 3.4 | 79 | NC(=O)COc1ccc2cc1CCc1cccc(c1)Nc1ncc(Cl)c(n1)N2 [Example A15, 2-{[6-Chloro-2,4,8,22-tetraazatetracyclo[14.3.1.1(3,7).1(9,13)]docosa-1(20),3(22),4,6,9(21),10,12,16,18-nonaen-12-yl]oxy}acetamide trifluoroacetate]
1 | 2.6 | 44 | 42 | 20 | O=C(COc1ccc2cc1CCc1cccc(c1)Nc1ncc(Cl)c(n1)N2)N1CCN(C(=O)Nc2ccccc2)CC1 [Example A13, 4-({[6-Chloro-2,4,8,22-tetraazatetracyclo[14.3.1.1(3,7).1(9,13)]docosa-1(20),3(22),4,6,9(21),10,12,16,18-nonaen-12-yl]oxy}acetyl)-N-phenylpiperazine-1-carboxamide trifluoroacetate]
